Measurements reported in patent US20130029961A1, “Substituted Heterocyclic Aza Compounds” (Gruenenthal GmbH, priority 2011, published 2013).

target: T1, TRPV1 human (Homo sapiens, UniProt Q8NER1); experiment: Functional FLIPR Ca2+ influx assay on vanilloid receptor 1 (VR1/TRPV1), capsaicin stimulus; type: cell-based; design: key to TRPV1 human (f) CAP, agonist (AG): AG denotes agonist; conditions: functional (f), vs capsaicin (CAP); Ki from IC50 by Cheng-Prusoff
T1 construct: expressed in transfected cells; host or cells: CHO K1 cells
T1 sequence (Q8NER1 whole entry): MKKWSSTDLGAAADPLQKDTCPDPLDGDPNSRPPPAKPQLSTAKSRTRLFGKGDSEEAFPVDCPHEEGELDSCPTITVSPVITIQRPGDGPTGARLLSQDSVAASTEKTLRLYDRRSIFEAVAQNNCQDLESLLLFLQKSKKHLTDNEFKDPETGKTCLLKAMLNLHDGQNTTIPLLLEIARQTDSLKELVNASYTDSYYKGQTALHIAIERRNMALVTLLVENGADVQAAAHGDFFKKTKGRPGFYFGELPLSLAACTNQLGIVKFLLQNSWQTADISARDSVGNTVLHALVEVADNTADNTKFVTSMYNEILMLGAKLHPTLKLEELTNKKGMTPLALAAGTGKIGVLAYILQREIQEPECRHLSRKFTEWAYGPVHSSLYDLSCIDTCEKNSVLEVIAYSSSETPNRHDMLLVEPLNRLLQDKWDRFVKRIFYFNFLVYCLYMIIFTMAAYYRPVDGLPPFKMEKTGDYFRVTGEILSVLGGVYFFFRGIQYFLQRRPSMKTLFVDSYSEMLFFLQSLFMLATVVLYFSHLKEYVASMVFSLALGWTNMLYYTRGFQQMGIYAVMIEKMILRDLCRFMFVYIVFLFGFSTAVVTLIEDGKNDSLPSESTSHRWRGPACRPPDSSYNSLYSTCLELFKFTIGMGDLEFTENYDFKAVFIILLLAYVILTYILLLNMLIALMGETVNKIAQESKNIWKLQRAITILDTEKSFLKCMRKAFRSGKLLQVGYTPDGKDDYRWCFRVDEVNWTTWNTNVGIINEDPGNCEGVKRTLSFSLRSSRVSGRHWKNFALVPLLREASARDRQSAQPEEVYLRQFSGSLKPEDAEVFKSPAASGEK

Row | Structure (SMILES) | Ki [nM]
1 | O=C(NCc1ccc(C(F)(F)F)nc1-c1cncc(Cl)c1)Nc1ccc(NCCO)nc1 [compound 131] | 29
2 | CC1CCN(c2nc(C(F)(F)F)ccc2CNC(=O)Nc2ccccn2)CC1 [compound 19] | 35
3 | O=C(Cc1ccccn1)NCc1ccc(C(F)(F)F)nc1N1CCCC1 [compound 10] | 73
4 | CC1CCN(c2nc(C(F)(F)F)ccc2CNC(=O)Nc2ccncc2CO)CC1 [compound 128] | 69
5 | COCCNc1ccc(C(C)C(=O)NCc2ccc(C(F)(F)F)nc2N2CCC(C)CC2)cn1 (stereo not drawn) [compound 87] | 27
6 | CC1CCN(c2nc(C(F)(F)F)ccc2CNC(=O)C(C)c2ccc(N)c(Br)n2)CC1 (stereo not drawn) [compound 84] | 50
7 | CC1CCN(c2nc(C(F)(F)F)ccc2CNC(=O)Nc2ccc(CO)cn2)CC1 [compound 127] | 61
8 | CC(C(=O)NCc1ccc(C(F)(F)F)nc1N1CCCC1)c1cnc(C(=O)Nc2ccc(F)cc2)nc1 (stereo not drawn) [compound 78] | 42
9 | COc1cc(NC(=O)NCc2ccc(C(F)(F)F)nc2N2CCC(C)CC2)cnc1N1CCCC1 [compound 116] | 78
10 | CC1CCN(c2nc(C(F)(F)F)ccc2CNC(=O)C(C)c2ccc(N(C)CCO)nc2)CC1 (stereo not drawn) [compound 89] | 53
11 | CC(C(=O)NCc1ccc(C(F)(F)F)nc1N1CCOCC1)c1cnc(C(=O)Nc2ccc(F)cc2)nc1 (stereo not drawn) [compound 80] | 60
12 | O=C(Cc1ccccn1)NCc1ccc(C(F)(F)F)nc1-c1cccc(Cl)c1 [compound 5] | 91
13 | CC1CCN(c2nc(C(F)(F)F)ccc2CNC(=O)Nc2ccc(C(O)CO)nc2)CC1 (stereo not drawn) [compound 129] | 39
14 | CC1CCN(c2nc(C(F)(F)F)ccc2CNC(=O)C(C)c2ccccn2)CC1 (stereo not drawn) [compound 14] | 45
15 | COc1ccc(C(C)C(=O)NCc2ccc(C(F)(F)F)nc2N2CCC(C)CC2)cn1 (stereo not drawn) [compound 120] | 44
16 | CC1CCN(c2nc(C(F)(F)F)ccc2CNC(=O)Nc2ccc(N(C)CCO)nc2)CC1 [compound 90] | 19
17 | CCNc1nc(C(F)(F)F)ccc1CNC(=O)C(C)c1cnc(C(=O)Nc2ccc(F)cc2)nc1 (stereo not drawn) [compound 77] | 80
18 | CC1CCN(c2nc(C(F)(F)F)ccc2CNC(=O)C(C)c2cnc(C(=O)Nc3ccccc3)nc2)CC1 (stereo not drawn) [compound 76] | 77
19 | COc1cc(NC(=O)NCc2ccc(C(F)(F)F)nc2N2CCC(C)CC2)cnc1N1CCC1 [compound 107] | 81
20 | CC1CCN(c2nc(C(F)(F)F)ccc2CNC(=O)Nc2cncc(CO)c2)CC1 [compound 126] | 26
21 | CC1CCN(c2nc(C(F)(F)F)ccc2CNC(=O)Cc2cnccn2)CC1 [compound 40] | 107
22 | CC1CCN(c2nc(C(F)(F)F)ccc2CNC(=O)C(C)c2ccc(C(=O)Nc3ccccc3)nc2)CC1 (stereo not drawn) [compound 75] | 57
23 | CC1CCN(c2nc(C(F)(F)F)ccc2CNC(=O)C(C)c2ccc(NC(=O)c3ccccc3)nc2)CC1 (stereo not drawn) [compound 98] | 63
24 | CC1CCN(c2nc(C(F)(F)F)ccc2CNC(=O)Nc2ccc(N3CCC3)nc2)CC1 [compound 105] | 27
25 | CC1CCN(c2nc(C(F)(F)F)ccc2CNC(=O)Cc2cncnc2)CC1 [compound 47] | 38

Next, values leading:

Row | Ki [nM] | Structure (SMILES)
26 | 10 | CC1CCN(c2nc(C(F)(F)F)ccc2CNC(=O)Nc2ccc(N3CC[C@@H](O)C3)nc2)CC1 [compound 118]
27 | 12 | CC1CCN(c2nc(C(F)(F)F)ccc2CNC(=O)Nc2ccc(N3CCCC3)nc2)CC1 [compound 114]
28 | 6 | CC1CCN(c2nc(C(F)(F)F)ccc2CNC(=O)Nc2cnc(CCS(C)(=O)=O)c(F)c2)CC1 [compound 67]
29 | 2 | COc1cc(C(C)C(=O)NCc2ccc(C(F)(F)F)nc2N2CCC(C)CC2)cnc1NS(C)(=O)=O (stereo not drawn) [compound 97]
30 | 7 | CC1CCN(c2nc(C(F)(F)F)ccc2CNC(=O)Cc2ccccn2)CC1 [compound 13]
31 | 15 | O=C(NCc1ccc(C(F)(F)F)nc1-c1cccc(F)c1)Nc1ccc(NCCO)nc1 [compound 130]
32 | 11 | CC1CCN(c2nc(C(F)(F)F)ccc2CNC(=O)Cc2ccncn2)CC1 [compound 39]
33 | 11 | CC1CCN(c2nc(C(F)(F)F)ccc2CNC(=O)Nc2ccc(OCCO)nc2)CC1 [compound 123]
34 | 5 | Cc1cccc(-c2nc(C(F)(F)F)ccc2CNC(=O)C(C)c2cnc(C(=O)Nc3ccc(F)cc3)nc2)c1 (stereo not drawn) [compound 81]
35 | 1 | CC1CCN(c2nc(C(F)(F)F)ccc2CNC(=O)Nc2ccc(NCCO)nc2)CC1 [compound 86]
36 | 11 | CC1CCN(c2nc(C(F)(F)F)ccc2CNC(=O)Nc2ccc(CO)nc2)CC1 [compound 55]
37 | 9 | CC1CCN(c2nc(C(F)(F)F)ccc2CNC(=O)Nc2ccnnc2)CC1 [compound 42]
38 | 10 | CC1CCN(c2nc(C(F)(F)F)ccc2CNC(=O)C(C)c2cccnc2)CC1 (stereo not drawn) [compound 32]
39 | 9 | CC1CCN(c2nc(C(F)(F)F)ccc2CNC(=O)Nc2ccc(N3CC[C@H](O)C3)nc2)CC1 [compound 117]
40 | 11 | CC(C(=O)NCc1ccc(C(F)(F)F)nc1N1CCCCC1)c1cnc(C(=O)Nc2ccc(F)cc2)nc1 (stereo not drawn) [compound 79]
41 | 6 | CC1CCN(c2nc(C(F)(F)F)ccc2CNC(=O)Cc2cccnc2)CC1 [compound 31]
42 | 12 | CC1CCN(c2nc(C(F)(F)F)ccc2CNC(=O)Nc2ccc(N3CC(O)C3)nc2)CC1 [compound 108]
43 | 9 | CC1CCN(c2nc(C(F)(F)F)ccc2CNC(=O)Nc2cnc(N(C)C)c(C(F)(F)F)c2)CC1 [compound 104]
44 | 16 | COCCNc1ccc(NC(=O)NCc2ccc(C(F)(F)F)nc2N2CCC(C)CC2)cn1 [compound 88]
45 | 4 | COCCOc1ccc(NC(=O)NCc2ccc(C(F)(F)F)nc2N2CCC(C)CC2)cn1 [compound 124]
46 | 1 | CC1CCN(c2nc(C(F)(F)F)ccc2CNC(=O)C(C)c2cnc(NS(C)(=O)=O)c(F)c2)CC1 (stereo not drawn) [compound 96]
47 | 2 | CC1CCN(c2nc(C(F)(F)F)ccc2CNC(=O)C(C)c2ccc(NCCO)nc2)CC1 (stereo not drawn) [compound 85]
48 | 9 | CC1CCN(c2nc(C(F)(F)F)ccc2CNC(=O)C(C)c2ccc(NC(=O)c3ccc(Cl)cc3)nc2)CC1 (stereo not drawn) [compound 99]

same assay, conditions: inhibition at 1 μM compound, capsaicin (CAP)

Row | TRPV1 human (f) CAP, inhibition (as a percentage) @ 1 μM [% @ 1 μM] | Structure (SMILES)
49 | 12 | COCCN(C)c1ccc(NC(=O)NCc2ccc(C(F)(F)F)nc2N2CCC(C)CC2)cn1 [compound 91]

same assay, conditions: inhibition at 5 μM compound, capsaicin (CAP)

Row | TRPV1 human (f) CAP, inhibition (as a percentage) @ 5 μM [% @ 5 μM] | Structure (SMILES)
50 | 48 | O=C(Cc1ccccn1)NCc1ccc(C(F)(F)F)nc1-c1ccc(F)c(Cl)c1 [compound 6]

same assay, conditions: inhibition at 5 μM compound, capsaicin (CAP); read-out: TRPV1 human (f) CAP, inhibition (as a percentage) @ 5 μM

Row | inhibition at 5 µM [%] | Structure (SMILES)
51 | 34 | CC(C(=O)NCc1ccc(C(F)(F)F)nc1N1CCOCC1)c1ccc(NS(C)(=O)=O)nc1 (stereo not drawn) [compound 95]
52 | 18 | Cc1cccc(-c2nc(C(F)(F)F)ccc2CNC(=O)Cc2ccccn2)c1 [compound 7]
53 | 32 | O=C(Cc1ccccn1)NCc1ccc(C(F)(F)F)nc1N1CCOCC1 [compound 22]
54 | 39 | COc1cccc(-c2nc(C(F)(F)F)ccc2CNC(=O)Cc2ccccn2)c1 [compound 8]
55 | 13 | COCCOCc1nc(C(F)(F)F)ccc1CNC(=O)Cc1ccccn1 [compound 24]
56 | 23 | CCCCNc1nc(C(F)(F)F)ccc1CNC(=O)Cc1ccccn1 [compound 9]
57 | 39 | CC1CCN(c2nc(C(F)(F)F)ccc2CNC(=O)Cc2ncccn2)CC1 [compound 41]

same assay, conditions: printed in the Ki column instead of a value

Row | TRPV1 human (f) CAP, agonist (AG) | Structure (SMILES)
58 | AG | CC1CCN(c2nc(C(F)(F)F)ccc2CNC(=O)C(C)c2ccc(Cl)nc2)CC1 (stereo not drawn) [compound 49]
59 | AG | CC1CCN(c2nc(C(F)(F)F)ccc2CNC(=O)C(C)c2ccc(C(N)=O)nc2)CC1 (stereo not drawn) [compound 74]
60 | AG | CC1CCN(c2nc(C(F)(F)F)ccc2CNC(=O)Cc2ccncc2)CC1 [compound 38]
